The results in this text go back to ChEMBL document CHEMBL4316632, “Antiplasmodial Diterpenoids from Psiadia arguta” (J Nat Prod, 2019).

Molecules are shown by their SMILES.

The experiment has as its system Plasmodium falciparum. The experiment in a line: Antiplasmodial activity against Plasmodium falciparum 3D7 assessed as reduction in parasite viability incubated for 48 hrs by APAD colorimetric test. The format is functional, organism-based. The following applies: 3D7, 48 h.
For orientation: IC50 means the concentration that inhibits the measured activity by half. In the case of `C/C(=C\CO)CC[C@@H]1[C@@]2(C)CCCC(C)(C)[C@@H]2CC[C@@]1(C)O`, the half-inhibitory concentration (IC50) was found to be 36.6 µM.
On to `CC(CCOC(=O)CC(C)CC[C@H]1[C@]2(C)CCCC(C)(C)[C@H]2CC[C@]1(C)O)CC[C@@H]1[C@@]2(C)CCCC(C)(C)[C@@H]2CC[C@@]1(C)O` (some centres undefined), for which the IC50 was over 50 µg/mL.
The figure for `CCC(C)C(=O)OCCC(C)CC[C@@H]1[C@@]2(C)CCCC(C)(C)[C@@H]2CC[C@@]1(C)O` (some centres undefined) is 58 µM; for `CC(=O)OCC[C@@H](C)CC[C@@H]1[C@@]2(C)CCCC(C)(C)[C@@H]2CC[C@@]1(C)O` it is 33.2 µM.
The figure for `CC(=O)OC/C=C(\C)CC[C@@H]1[C@@]2(C)CCCC(C)(C)[C@@H]2CC[C@@]1(C)O` is 29.1 µM; for `CC(CCOC=O)CC[C@@H]1[C@@]2(C)CCCC(C)(C)[C@@H]2CC[C@@]1(C)O` (some centres undefined) it is 73 µM; for `C=C[C@](C)(O)CC[C@@H]1[C@@]2(C)CCCC(C)(C)[C@@H]2CC[C@@]1(C)O` [SCLAREOL] it is 35 µM.
Consider `CCC(C)CC(=O)OCCC(C)CC[C@@H]1[C@@]2(C)CCCC(C)(C)[C@@H]2CC[C@@]1(C)O` (some centres undefined), for which the IC50 was found to be 54.8 µM.
In the case of `C[C@H](CCO)CC[C@@H]1[C@@]2(C)CCCC(C)(C)[C@@H]2CC[C@@]1(C)O` [LABDANEDIOL], the half-inhibitory concentration (IC50) came to 22.2 µM.
